In PubChem BioAssay AID1645861 (Buhrlage Lab, Dana-Farber Cancer Institute and Novartis …, 2021):
Calls of active or inactive are those of the source.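 Rule for the calls: active = compounds whose peak USP7 inhibition across the dose series reached 30% or more; inactive = the rest.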

The compounds below were run against Ubiquitin carboxyl-terminal hydrolase 7 (Homo sapiens) (UniProt Q93009) (assay: Biochemical concentration-response for ubiquitin-specific peptidase 7 DUB inhibitors, verifying primary hits (AID 1645861)). Conditions: purified USP7, Ub-rhodamine cleavage fluorescence, 60 min.
Ubiquitin carboxyl-terminal hydrolase 7 (Homo sapiens), sequence (Q93009 whole entry, looked up): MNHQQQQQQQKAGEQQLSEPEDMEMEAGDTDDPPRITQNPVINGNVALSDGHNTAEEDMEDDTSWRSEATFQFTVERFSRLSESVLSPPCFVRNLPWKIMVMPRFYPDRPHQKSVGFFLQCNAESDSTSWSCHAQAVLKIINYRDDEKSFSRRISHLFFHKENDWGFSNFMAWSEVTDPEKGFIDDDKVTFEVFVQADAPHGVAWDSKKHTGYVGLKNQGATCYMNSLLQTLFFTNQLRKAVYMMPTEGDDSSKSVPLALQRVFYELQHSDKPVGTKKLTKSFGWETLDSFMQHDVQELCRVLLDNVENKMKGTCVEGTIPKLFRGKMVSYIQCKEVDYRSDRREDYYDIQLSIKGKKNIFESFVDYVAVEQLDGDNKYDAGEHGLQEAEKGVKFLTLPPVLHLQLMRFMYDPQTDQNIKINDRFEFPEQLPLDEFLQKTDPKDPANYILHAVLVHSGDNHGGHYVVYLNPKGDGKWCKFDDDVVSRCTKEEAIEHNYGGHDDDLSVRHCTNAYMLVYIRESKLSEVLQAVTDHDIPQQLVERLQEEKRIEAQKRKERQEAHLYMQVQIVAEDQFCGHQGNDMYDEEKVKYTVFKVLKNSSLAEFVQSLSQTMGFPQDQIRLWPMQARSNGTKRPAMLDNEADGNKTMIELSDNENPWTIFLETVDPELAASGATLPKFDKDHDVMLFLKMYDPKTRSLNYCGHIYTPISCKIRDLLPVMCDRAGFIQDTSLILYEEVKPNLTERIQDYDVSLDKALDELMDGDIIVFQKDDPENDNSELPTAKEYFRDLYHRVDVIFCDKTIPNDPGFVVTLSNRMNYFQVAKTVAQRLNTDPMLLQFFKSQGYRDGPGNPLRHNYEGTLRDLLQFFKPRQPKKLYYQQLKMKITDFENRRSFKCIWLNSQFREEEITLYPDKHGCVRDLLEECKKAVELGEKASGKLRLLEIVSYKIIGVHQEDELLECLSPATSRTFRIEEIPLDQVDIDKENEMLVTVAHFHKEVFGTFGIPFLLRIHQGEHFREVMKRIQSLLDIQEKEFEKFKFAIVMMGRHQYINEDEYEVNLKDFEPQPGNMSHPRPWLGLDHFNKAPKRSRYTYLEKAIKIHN

| Structure (SMILES) | IC50 |
| --- | --- |
| O=C(Nc1ccccc1F)c1nc(-c2cn(-c3ccc(F)cc3)nn2)no1 | > 50 µM (inactive) |
| O=C(Nc1cc(F)c2nc(N3CCOCC3)ccc2c1)C1CC1 | > 50 µM (inactive) |
| COc1ccc(-c2nc(Cn3nnc(C(=O)Nc4ccc(C)c(C)c4)c3N)c(C)o2)cc1 | > 50 µM (inactive) |
| C[C@@H]1CO[C@@H]2C3=C(C(=O)C=CC3=O)[C@H]3OC(=O)[C@@H]4CCC5[C@@H]1CCC52C34 (some centres undefined) | > 50 µM (inactive) |
| COc1cc2c(c(OCC(=O)Nc3ccc4c(c3)OCCO4)c1)C(=O)O[C@@H](C)CCCC(=O)CCCCC2 | > 50 µM (inactive) |
| Cc1sc(NC(=O)Cn2nnc3ccccc32)nc1-c1ccc2c(c1)CCN2C(=O)c1ccccc1F | > 50 µM (inactive) |
| O=C(NCc1ccc2c(c1)OCO2)c1[nH]nc2c1COc1ccccc1-2 | > 50 µM (inactive) |
| CCC(=O)N1c2ccccc2NC2=C(C(=O)CC(c3ccccc3OCc3ccccc3)C2)C1c1ccccc1 (centres undefined) | > 50 µM (inactive) |
| CCCC(O)CCCCCCCc1cc(O)cc(O)c1C(=O)OC(CCC)CCCCCCCc1cc(O)cc(O)c1 (centres undefined) | > 50 µM (inactive) |
| CCc1noc(-c2ccn3c(CC(=O)Nc4ccccc4C)nnc3c2)n1 | > 50 µM (inactive) |
| CCOc1cccc(-c2noc(-c3nn(-c4ccccc4)ccc3=O)n2)c1 | > 50 µM (inactive) |
| Cc1cccc(C)c1NC(=O)CN1C(=O)CC(c2ccccc2)=Nc2ccccc21 | > 50 µM (inactive) |
| CCOc1ccc2c(c1)c(=O)c(C(=O)c1ccc(C)cc1)cn2CC(=O)Nc1ccc(C)cc1 | > 50 µM (inactive) |
| CC(OC(=O)c1cc(S(=O)(=O)Nc2ccccc2F)ccc1Cl)C(=O)Nc1ccc([N+](=O)[O-])cc1C(F)(F)F (centres undefined) | > 50 µM (inactive) |
| Cc1ccc(S(=O)(=O)Nc2ccccc2C(=O)Nc2nc3ccc(Br)cc3s2)cc1 | 10 µM |
| CCOc1ccc(-n2c(SCC(=O)Nc3ccc(C)cc3)nnc2-c2c[nH]c3ccccc23)cc1 | > 50 µM (inactive) |
| O=C(Cn1c(=O)n(Cc2ccc3c(c2)OCO3)c(=O)c2ccccc21)NCc1ccco1 | > 50 µM (inactive) |
| COc1ccc(OC)c(-c2cn3ccn(-c4ccc(F)c(Cl)c4)c(=O)c3n2)c1 | > 50 µM (inactive) |
| Cc1ccc(Nc2nc(O)c(CC(=O)Nc3cccc(Cl)c3C)s2)cc1C | > 50 µM (inactive) |
| N#Cc1c(-c2ccc(Cl)cc2)cc(-c2cccc(Br)c2)[nH]c1=O | > 50 µM (inactive) |
| Cc1ccc2c(c1)c(=O)c(C(=O)c1ccccc1)cn2CC(=O)Nc1ccccc1 | > 50 µM (inactive) |
| NS(=O)(=O)c1ccc(CNC(=O)c2ccc(Cl)c(S(=O)(=O)Nc3cc(Cl)ccc3Cl)c2)cc1 | > 50 µM (inactive) |

| Structure (SMILES) | IC50 |
| --- | --- |
| COc1ccc(Sc2nc3ccccc3n3cnnc23)cc1 | > 50 µM (inactive) |
| Cc1nc(C(=O)NC2(O)C(=O)c3ccccc3C2=O)cs1 | > 50 µM (inactive) |
| O=C(NCc1ccc2c(c1)OCO2)c1cn(-c2cccc(Cl)c2)nn1 | > 50 µM (inactive) |
| O=C(NC1(O)C(=O)c2ccccc2C1=O)c1cccc2c1-c1ccccc1C2=O | > 50 µM (inactive) |
| Cc1nc(-c2noc(-c3cccc(F)c3)n2)cn1CC(=O)Nc1ccccc1 | > 50 µM (inactive) |
| CCc1nc(SCC(=O)Nc2ccc(C)cc2C)c2oc3ccccc3c2n1 | > 50 µM (inactive) |
| COc1ccc(CC(=O)Nc2ccccc2-c2nc3ccccc3[nH]2)cc1OC | > 50 µM (inactive) |
| COc1ccc(NC(=O)Cn2cc(C(=O)c3ccc(Cl)cc3)c(=O)c3cc(F)ccc32)cc1 | 47 µM |
| CCOC(=O)N1CCN(C(=O)c2ccc(NCc3ccc(F)cc3)c(S(=O)(=O)Nc3cccc(C(F)(F)F)c3)c2)CC1 | > 50 µM (inactive) |
| Cc1cccc(Cl)c1NC(=O)Nc1ccc(NC(=O)c2ccccc2O)cc1 | > 50 µM (inactive) |
| CC(C)=CCCC1(C)C=Cc2c(O)c3c(c(CC=C(C)C)c2O1)OC12C(=CC4CC1C(C)(C)OC2(C/C=C(/C)C(=O)O)C4=O)C3=O (centres undefined) | 17.4 µM |
| O=C(CSc1ccc(-c2cccc([N+](=O)[O-])c2)nn1)Nc1cccc(F)c1 | > 50 µM (inactive) |
| CC(C)=CCC(O)C1=CC(=O)c2c(O)ccc(O)c2C1=O (centres undefined) | 9.02 µM |
| Cc1nn(-c2ccc(F)cc2)c(C)c1S(=O)(=O)N1CCN(c2ccccn2)CC1 | > 50 µM (inactive) |
| O=C(Nc1ccccc1)[C@@H]1[C@@H]2C(=O)N(c3ccc([N+](=O)[O-])cc3)C(=O)[C@@H]2[C@H]2c3ccccc3C=CN12 | > 50 µM (inactive) |
| COc1ccc(S(=O)(=O)N2CCc3ccccc32)cc1C(=O)Nc1ccc2[nH]c(=O)[nH]c2c1 | > 50 µM (inactive) |
| Cc1noc(-c2cc(=O)n(CC(=O)Nc3ccccc3Cl)c3ccccc23)n1 | > 50 µM (inactive) |
| O=C(CCCc1nnc2c(=O)n(-c3cccc(F)c3)ccn12)NCc1ccc(Cl)cc1 | > 50 µM (inactive) |
| C=C1C=C(CCC(=O)O)C(=O)OC1/C=C/C=C/C (centres undefined) | 18.2 µM |
| COc1ccc(Nc2nc3c(S(=O)(=O)c4ccc(C)cc4)nnn3c3ccsc23)c(OC)c1 | > 50 µM (inactive) |
| COc1ccccc1-c1nc(-c2cn(-c3ccc(F)cc3)nn2)no1 | 43.9 µM |
| O=C(Nc1ccccc1-c1nc2ccccc2[nH]1)c1sc2ccccc2c1Cl | 35.7 µM |
